Assay results as given in patent publication US6841519B1, “Isoxazoline derivatives and herbicides containing the same as the active ingredient” (Kumiai Chemical Industry Co., Ltd., priority 1999, dated 2005).

Legend:
Format in all cases: in vivo
[1] = tested on: Echinochloa oryzicola Vasing. (Eo); test: Test for herbicidal effect by paddy field soil treatment (Test Example 1); details: application amount (active ingredient) 100 g/10 a, examined at the 21st day from the treatment, index per Table 40
In short: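 Scored on a standard scale at day 21 in the greenhouse: herbicidal effect of wettable powder applied to flooded water (3 cm depth) at 100 g a.i./10 ares, one day after sowing Eo into puddled paddy soil.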

[2] = tested on: Echinochloa crus-galli (L.) Beauv. var. crusgall (Ec); test: Test for herbicidal effect by upland field soil treatment (Test Example 2), Ec
In short: (§1)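 Pre-emergence soil treatment: wettable powder diluted in water and sprayed on soil just sown with Ec and Se seeds, delivering 100 g active ingredient per 10 ares in 100 liters per 10 ares. Herbicidal effect was rated against a fixed scale 21 days later, after greenhouse growth.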

[3] = tested on: Setaria viridis (L.) Beauv. (Se); test: Test for herbicidal effect by upland field soil treatment (Test Example 2), Se
In short: as §1

[4] = tested on: Echinochloa crus-galli (L.) Beauv. var. crusgalli (Ec); test: Test for herbicidal effect by upland foliage treatment (Test Example 3); details: 100 g/10 a active ingredient, examined at 14th day
In short: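 Scored 14 days post-spray against a graded standard: greenhouse-grown Ec, 2 weeks old in upland soil, received whole-foliage application of diluted wettable powder (100 g active ingredient per 10 ares, spray volume 100 L per 10 ares).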

[5] = tested on: Polygonum lapathifolium L. subsp. nodosum (Pers.) Kitam. (Po); test: Test for herbicidal effect to broadleaf weeds by upland field soil treatment (Test Example 6), Po; details: 25 g/10 a active ingredient, 30th day
Protocol: (§2) Test for herbicidal effect to broadleaf weeds by upland field soil treatment
(§3) An upland field soil was filled in a plastic pot of 80 cm^2. Seeds of Polygonum lapathifolium L. subsp. nodosum (Pers.) Kitam. (Po) and Chenopodium album L. (Ch) were sowed, followed by covering with the same soil. Wettable powders produced in accordance with the Formulation 1 were diluted with water and sprayed uniformly on the soil surface using a small sprayer, […] Then, breeding was made in a greenhouse. At the 30th day from the treatment, the herbicidal effect of each wettable powder was examined in accordance with the standard shown in Table 40.

[6] = tested on: Chenopodium album L. (Ch); test: Test for herbicidal effect to broadleaf weeds by upland field soil treatment (Test Example 6), Ch; details: 25 g/10 a active ingredient, 30th day
Protocol: as §2, §3

rice (Or) = test: Test for crop selectivity by paddy field soil treatment (Test Example 4), phytotoxicity to rice; details: transplanted two-leaf stage rice, 100 g/10 a active ingredient, 21st day
In short: (§4)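 Puddled paddy soil sown with Eo seeds, two-leaf rice transplanted at 2 cm depth, flooded 3 cm. Next day, wettable powder diluted in water was dropped on the water surface at 100 g a.i. per 10 ares. Herbicidal effect and rice phytotoxicity scored visually 21 days after treatment, greenhouse.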

[7] = tested on: Echinochloa oryzicola Vasing. (Eo); test: Test for crop selectivity by paddy field soil treatment (Test Example 4), herbicidal effect on Eo; details: 100 g/10 a active ingredient, 21st day
In short: as §4

[8] = application amount (active ingredient) 100 g/10 a, examined at the 21st day from the treatment, index per Table 40
[9] = 100 g/10 a active ingredient, examined at 21st day

Row | SMILES | Herbicidal effect to Eo [1] | Herbicidal effect to Ec [2, 8] | Herbicidal effect to Se [3, 8] | Herbicidal effect to Ec [4] | Herbicidal effect to Po [5] | Herbicidal effect to Ch [6] | Herbicidal effect to Ec [2, 9] | Herbicidal effect to Se [3, 9] | Phytotoxicity to Or (rice (Or)) | Herbicidal effect to Eo [7]
1 | CCCOc1ccccc1CS(=O)(=O)C1=NOC(C)(C)C1 [Compound 1-46] | 5 (A herbicidal effect or phytotoxicity of 90% or more) | 5 (A herbicidal effect or phytotoxicity of 90% or more) | 5 (A herbicidal effect or phytotoxicity of 90% or more) | 4 (A herbicidal effect or phytotoxicity of 70% to less than 90%) | 5 (A herbicidal effect or phytotoxicity of 90% or more) | 4 (A herbicidal effect or phytotoxicity of 70% to less than 90%) |  |  |  | 
2 | CC1(C)CC(S(=O)(=O)Cc2c(F)cc(F)cc2F)=NO1 [Compound 1-500] | 5 (A herbicidal effect or phytotoxicity of 90% or more) |  |  | 5 (A herbicidal effect or phytotoxicity of 90% or more) | 5 (A herbicidal effect or phytotoxicity of 90% or more) | 4 (A herbicidal effect or phytotoxicity of 70% to less than 90%) | 5 (A herbicidal effect or phytotoxicity of 90% or more) | 5 (A herbicidal effect or phytotoxicity of 90% or more) |  | 
3 | CCOc1cccc(F)c1CS(=O)(=O)C1=NOC(C)(C)C1 [Compound 1-526] | 5 (A herbicidal effect or phytotoxicity of 90% or more) |  |  | 5 (A herbicidal effect or phytotoxicity of 90% or more) | 5 (A herbicidal effect or phytotoxicity of 90% or more) | 5 (A herbicidal effect or phytotoxicity of 90% or more) | 5 (A herbicidal effect or phytotoxicity of 90% or more) | 5 (A herbicidal effect or phytotoxicity of 90% or more) |  | 
4 | CC1(C)CC(S(=O)(=O)Cc2cc(F)ccc2F)=NO1 [Compound 1-498] | 5 (A herbicidal effect or phytotoxicity of 90% or more) |  |  | 5 (A herbicidal effect or phytotoxicity of 90% or more) | 5 (A herbicidal effect or phytotoxicity of 90% or more) | 5 (A herbicidal effect or phytotoxicity of 90% or more) | 5 (A herbicidal effect or phytotoxicity of 90% or more) | 5 (A herbicidal effect or phytotoxicity of 90% or more) |  | 
5 | COC(=O)c1cccc(F)c1CS(=O)(=O)C1=NOC(C)(C)C1 [Compound 1-555] | 5 (A herbicidal effect or phytotoxicity of 90% or more) |  |  | 4 (A herbicidal effect or phytotoxicity of 70% to less than 90%) | 5 (A herbicidal effect or phytotoxicity of 90% or more) | 4 (A herbicidal effect or phytotoxicity of 70% to less than 90%) | 5 (A herbicidal effect or phytotoxicity of 90% or more) | 5 (A herbicidal effect or phytotoxicity of 90% or more) |  | 
6 | CC1(C)CC(S(=O)(=O)Cc2ccccc2Cl)=NO1 [Compound 1-2] | 5 (A herbicidal effect or phytotoxicity of 90% or more) | 5 (A herbicidal effect or phytotoxicity of 90% or more) | 5 (A herbicidal effect or phytotoxicity of 90% or more) | 4 (A herbicidal effect or phytotoxicity of 70% to less than 90%) |  | 4 (A herbicidal effect or phytotoxicity of 70% to less than 90%) |  |  |  | 
7 | COc1cccc(F)c1CS(=O)(=O)C1=NOC(C)(C)C1 [Compound 1-534] | 5 (A herbicidal effect or phytotoxicity of 90% or more) |  |  | 5 (A herbicidal effect or phytotoxicity of 90% or more) | 5 (A herbicidal effect or phytotoxicity of 90% or more) | 5 (A herbicidal effect or phytotoxicity of 90% or more) | 5 (A herbicidal effect or phytotoxicity of 90% or more) | 5 (A herbicidal effect or phytotoxicity of 90% or more) |  | 
8 | CC1CC(S(=O)(=O)Cc2c(F)cccc2F)=NO1 (centres unmarked) [Compound 1-532] | 5 (A herbicidal effect or phytotoxicity of 90% or more) |  |  | 4 (A herbicidal effect or phytotoxicity of 70% to less than 90%) | 5 (A herbicidal effect or phytotoxicity of 90% or more) | 5 (A herbicidal effect or phytotoxicity of 90% or more) | 5 (A herbicidal effect or phytotoxicity of 90% or more) | 4 (A herbicidal effect or phytotoxicity of 70% to less than 90%) |  | 
9 | CCCCOc1cccc(Cl)c1CS(=O)(=O)C1=NOC(C)(C)C1 [Compound 1-574] | 5 (A herbicidal effect or phytotoxicity of 90% or more) |  |  | 4 (A herbicidal effect or phytotoxicity of 70% to less than 90%) |  |  | 5 (A herbicidal effect or phytotoxicity of 90% or more) | 5 (A herbicidal effect or phytotoxicity of 90% or more) | 1 (A herbicidal effect or phytotoxicity of 10% to less than 30%) | 5 (A herbicidal effect or phytotoxicity of 90% or more)
10 | CC1(C)CC(S(=O)(=O)Cc2c(F)cccc2[N+](=O)[O-])=NO1 [Compound 1-499] | 5 (A herbicidal effect or phytotoxicity of 90% or more) |  |  | 5 (A herbicidal effect or phytotoxicity of 90% or more) | 5 (A herbicidal effect or phytotoxicity of 90% or more) | 4 (A herbicidal effect or phytotoxicity of 70% to less than 90%) | 5 (A herbicidal effect or phytotoxicity of 90% or more) | 5 (A herbicidal effect or phytotoxicity of 90% or more) |  | 
11 | C=CCOC(=O)c1ccccc1CS(=O)(=O)C1=NOC(C)(C)C1 [Compound 1-599] | 5 (A herbicidal effect or phytotoxicity of 90% or more) |  |  | 4 (A herbicidal effect or phytotoxicity of 70% to less than 90%) |  |  | 5 (A herbicidal effect or phytotoxicity of 90% or more) | 5 (A herbicidal effect or phytotoxicity of 90% or more) | 1 (A herbicidal effect or phytotoxicity of 10% to less than 30%) | 5 (A herbicidal effect or phytotoxicity of 90% or more)
12 | CC1(C)CC(S(=O)(=O)Cc2c(F)cccc2OC(F)F)=NO1 [Compound 1-573] | 5 (A herbicidal effect or phytotoxicity of 90% or more) |  |  | 5 (A herbicidal effect or phytotoxicity of 90% or more) | 5 (A herbicidal effect or phytotoxicity of 90% or more) | 5 (A herbicidal effect or phytotoxicity of 90% or more) | 5 (A herbicidal effect or phytotoxicity of 90% or more) | 5 (A herbicidal effect or phytotoxicity of 90% or more) |  | 
13 | CCC1(C)CC(S(=O)(=O)Cc2cccc(OC)c2)=NO1 (centres unmarked) [Compound 1-229] | 5 (A herbicidal effect or phytotoxicity of 90% or more) | 5 (A herbicidal effect or phytotoxicity of 90% or more) | 5 (A herbicidal effect or phytotoxicity of 90% or more) | 4 (A herbicidal effect or phytotoxicity of 70% to less than 90%) |  |  |  |  | 1 (A herbicidal effect or phytotoxicity of 10% to less than 30%) | 5 (A herbicidal effect or phytotoxicity of 90% or more)
14 | Cc1cc(C)cc(CS(=O)(=O)C2=NOC(C)(C)C2)c1 [Compound 1-523] | 5 (A herbicidal effect or phytotoxicity of 90% or more) |  |  | 5 (A herbicidal effect or phytotoxicity of 90% or more) | 5 (A herbicidal effect or phytotoxicity of 90% or more) | 5 (A herbicidal effect or phytotoxicity of 90% or more) | 5 (A herbicidal effect or phytotoxicity of 90% or more) | 5 (A herbicidal effect or phytotoxicity of 90% or more) |  | 
15 | CC1(C)CC(S(=O)(=O)Cc2c(F)ccc(F)c2F)=NO1 [Compound 1-501] | 5 (A herbicidal effect or phytotoxicity of 90% or more) |  |  | 5 (A herbicidal effect or phytotoxicity of 90% or more) | 5 (A herbicidal effect or phytotoxicity of 90% or more) | 5 (A herbicidal effect or phytotoxicity of 90% or more) | 5 (A herbicidal effect or phytotoxicity of 90% or more) | 5 (A herbicidal effect or phytotoxicity of 90% or more) |  | 
